Experiments:
Format in all cases: cell-based, human
[1] = system: HCT116 MLH1−/− cells; assay: Short-term viability assay, HCT116 MLH1-/- cells +/- O6BG; settings: with or without 10 μM O6BG pre-treatment
Description: FIG. 1B: Short-term viability assay curves for KL-50 in DLD1 MSH6-deficient cells pre-treated with 0.01% DMSO control (CTR) or 10 μM O^6BG (+O^6BG) for 1 h prior to KL-50 addition. […] Short-term viability assay curves for (FIG. 1E) KL-50 in HCT116 MLH1−/−cells or (FIG. 1F) HCT116 cells complemented with chromosome 3 carrying wildtype MLH1 (+Chr3) pre-treated with 0.01% DMSO control or 10 μM O^6BG (+O^6BG) for 1 h prior to KL-50 addition. […] For these figures, points, mean; error bars, SD; n>3 technical replicates.
Short-term Cell Viability Assay. Cells were seeded in 96-well plates at 1000 or 2000 cells/well and allowed to adhere at 23° C. for 60 min and then incubated overnight at 37° C. Cells were treated with indicated concentrations of compounds in triplicate for 4-6 days prior to fixation with 3.7% paraformaldehyde and nuclear staining with 1 μg/mL Hoechst 33342 dye. Cells were imaged on a Cytation 3 imaging reader (BioTek) and quantified using CellProfiler software. For in vitro short-term growth delay experiments, IC50 values were determined from the nonlinear regression equation, [inhibitor] vs normalized response with variable slope.

[2] = system: DNA repair foci in LN229 MGMT+/−, MMR+/− cells; assay: Immunofluorescence foci assays (γH2AX, 53BP1, pRPA); settings: 20 μM, 2 to 48 h
Description: FIGS. 5A-5K: KL-50 activates DNA damage response pathways and cycle arrest in MGMT-cells, independent of MMR, and induces sensitivity in cells deficient in ICL or HR repair. […] Columns, mean; error bars, SD; n 5 technical replicates. FIGS. 5D-5K: KL-50 induces activation of the ATR-CHK1 and ATM-CHK2 signaling axes and delayed DNA repair foci formation in MGMT-deficient cells, independent of MMR status. […] Treatment with 1 μM doxorubicin for 24 h (Doxo) served as a positive control for p-CHK1 activation. […] Points, mean % cells with >10 foci; error bars, SD; n >5 technical replicates. […] Points, % cells with 10 foci, n>250 cells per condition.
Immunofluorescence Foci Assays. High-throughput immunofluorescence foci assays were performed at the Yale Center for Molecular Discovery (YCMD). Cells were seeded at 2000 cells/well in black polystyrene flat bottom 384-well plates (Greiner Bio-One) and allowed to adhere overnight. Compound addition was performed utilizing a Labcyte Echo 550 liquid handler (Beckman Coulter), with 6 replicates per test condition and 12 replicates per control condition. Following drug incubation, cells were fixed and stained for phospho-SER139-H2AX (yH2AX), 53BP1, or phospho-SER33-RPA2 (pRPA) as follows. […]

[3] = system: MGMT+ LN229 cells; assay: Clonogenic survival assay, LN229 MGMT+ cells
Description: In vitro clonogenic survival assays (CSAs) were performed using four isogenic LN229 glioblastoma cell lines.
Clonogenic Cell Survival Assay. Cells of each line were pretreated with the test drug in culture for 48-72 hours at the specified dilutions. The cells were then immediately seeded in six-well plates in triplicate at three-fold dilutions, ranging from 9000 to 37 cells per well. Depending on colony size, these plates were kept in the incubator for 10 to 14 days. After incubation, colonies were washed in phosphate-buffered saline (PBS) and stained with crystal violet. Colonies were counted by hand. Counts were normalized to plating efficiency of the corresponding treatment condition.

| SMILES | cytotoxicity in HCT116 MLH1-deficient cells [1] | γH2AX, 53BP1, pRPA foci formation [2] | clonogenic survival, toxicity to MGMT+ cells ([3]; at doses up to at least 200 μM) | clonogenic survival, activity in MGMT+ cells ([3]; irrespective of MMR status) |
| --- | --- | --- | --- | --- |
| NC(=O)c1ncn2c(=O)n(CCF)nnc12 [KL-50] | induced selective tumor cell killing specifically in the setting of O^6BG-induced MGMT suppression | induced a maximal foci response at 48 h, specifically in MGMT-cells and irrespective of MMR status | minimal toxicity |  |
| Cn1nnc2c(C(N)=O)ncn2c1=O [TMZ, 4-methyl-5-oxo-2,3,4,6,8-pentazabicyclo[4.3.0]nona-2,7,9-triene-9-carboxamide, reference compound] | inactive | induced a comparable response in MGMT-cells, but this was abolished in the absence of functional MMR |  | negligible activity |

Source: US20240294478A1, “ANTI-CANCER COMPOUNDS AND METHODS OF USE” (YALE UNIVERSITY, priority 2021, published 2024)
